# Laboratory results reported in paper PMC6934188, “Epidermal hepcidin is required for neutrophil response to bacterial infection” (The Journal of Clinical Investigation, 2019).
# Where no end group is shown, it is not given here.
# B1: CXCL1 (protein, UniProt P12850 25-96, looked up)
# Growth-regulated alpha protein: APIANELRCQCLQTMAGIHLKNIQSLKVLPSGPHCTQTEVIATLKNGREACLDPEAPLVQKIVQKMLKGVPK
# What was measured:
# [1] = tested on: murine primary keratinocytes; experiment: Cytokines in culture supernatant of murine primary keratinocytes (V-PLEX Proinflammatory Panel1 / CXCL1 ELISA); format: cell-based, mouse
# GAS [2] = experiment: Therapeutic treatment in GAS-induced necrotizing fasciitis mouse model; format: in vivo, mouse (C57BL6)
# SpeB = SpeB (Streptococcus pyogenes, UniProt P0C0J0)
# SpyCEP = conditions: incubated overnight with purified SpyCEP or PBS; mass spectrometry read-out; CXCL1 fragments of 5.9 kDa and 1.3 kDa
# [3] = tested on: human HaCat keratinocyte cell line; experiment: IL-8 ELISA on culture supernatant of HaCat; format: cell-based; conditions: HaCat stimulated with 3.6 μM hepcidin; n ≥ 3 per group
# [4] = tested on: human 3D organotypic skin model; experiment: IL-8 ELISA on culture supernatant of human 3D organotypic skin model; format: cell-based; conditions: human 3D skin equivalent model stimulated with 3.6 μM hepcidin; n ≥ 3 per group
# GAS [5] = experiment: Rescue experiment: CXCL1 injection into GAS-infected Hamp1Δker mice; conditions: 1 µg/mouse rCXCL1 s.c. with infection and intralesionally at 24, 48 and 72 h, n ≥ 4 per group
# Experimental: (G) Bacterial count in the skin of Hamp1^lox/lox and Hamp1Δ^ker mice injected daily with CXCL1 or PBS; n ≥ 4 per group.
# were performed in a C57BL6 background, using 8-12 week old male littermates.
# Mouse model of GAS infection
# A well-established model of necrotizing soft tissue infection was adapted for this study (3, 4).
# In brief, Hamp1lox/lox and Hamp1Δker mice male littermates were subcutaneously injected with
# 107 c.f.u. of M1T1 5448 GAS. Weight loss and lesion size of mice were estimated daily. After
# 96 hours, mice were sacrificed and skin necrotic ulcers, spleen, and blood (via retro orbital
# bleeding) were recovered and homogenized in sterile PBS. Serial dilutions of tissue
# homogenate were spread on THA plates to enumerate bacterial colony forming units (c.f.u.).
# For the rescue experiment, Hamp1lox/lox and Hamp1Δker littermates were subcutaneously
# infected with 107 c.f.u. of GAS with PBS or 1 µg/mouse of recombinant CXCL1 (rCXCL1;
# R&D system, 1395-KC-025/CF). Mice were intralesionally injected again at 24, 48 and 72 h
# with PBS or 1 µg of rCXCL1.
molecule,measurement,setting,value
Ferric Ammonium Citrate [iron],CXCL1 production (ELISA),"[1]; murine primary keratinocytes stimulated 3 hours with 500 μM ferric ammonium citrate (FAC), n = 3 per group",stimulated CXCL1 production
"hepcidin (DTNFPICIFCCKCCNNSQCGICCKT; ends and bridges not checked; cysteine pairing not given here; UniProt Q9EQ21 59-83, looked up)",CXCL1 in culture supernatant,"[1]; murine primary keratinocytes incubated with 0.36 μM and 3.6 μM synthetic hepcidin for 1 or 3 hours, V-PLEX cytoplex, n = 3 per group",dose-dependent increase
same,CXCL1 induction measured by ELISA,"[1]; murine primary keratinocytes, 3.6 uM hepcidin, 1 or 3 hours, N=3 per group (Supplemental Figure 5)",confirmed by ELISA
same,bacterial dissemination in CXCL1–/– mice,"GAS [2]; CXCL1–/– mice, hepcidin treatment (Supplemental Figure 8)",did not prevent bacterial dissemination
same,weight variation,"GAS [2]; WT mice, s.c. 1 μg hepcidin 24 h after GAS infection, then 500 ng at 48 and 72 h, 4 days, n = 9",recovered their initial weight
same,mice with absolutely no bacterial dissemination (bacterial count in spleen),"GAS [2]; WT mice, s.c. 1 μg hepcidin 24 h after GAS infection, then 500 ng at 48 and 72 h, spleen c.f.u. at 96 hours, n = 9, all control mice disseminated",7 of the 9
same,signs of systemic disease,"GAS [2]; WT mice, s.c. 1 μg hepcidin 24 h after GAS infection, then 500 ng at 48 and 72 h, vs PBS (weight loss, rough hair coat, hunched posture), n = 9",did not present any signs of systemic disease
same,neutrophil recruitment,"GAS [2]; WT mice, s.c. 1 μg hepcidin at inoculation site 24 h after GAS infection, then 500 ng at 48 and 72 h, n = 6 per group",increase in neutrophil recruitment
same,cleavage by SpeB,SpeB,not cleaved
same,cleavage by SpyCEP,SpyCEP,not cleaved
"human hepcidin (DTHFPICIFCCGCCHRSKCGMCCKT; ends and bridges not checked; cysteine pairing not given here; UniProt P81172 60-84, looked up) [human hepcidin used to stimulate HaCat and human 3D organotypic skin model]",production of IL-8,[3],induce the production of IL-8
same,production of IL-8,[4],induce the production of IL-8
B1,bacterial count in the skin lesion,GAS [5],significantly decreased the number of bacteria
same,cleavage by SpyCEP,SpyCEP,cleaved
